Consider 22 molecules from patent publication US20120142735A1, “DISUBSTITUTED [4-(5-AMINOMETHYL-PHENYL)-PIPERIDIN-1-YL]- 1H-INDOL-3-YL]-METHANONES” (SANOFI, priority 2009, published 2012).

Each structure is given as a SMILES string. Several values for one entry are separate records, joined by “and”; a condition that tells them apart may be missing. Identical values can stand only once. Counter-ions that a name gives are not always drawn.

T1 sequence (P20231 31-275): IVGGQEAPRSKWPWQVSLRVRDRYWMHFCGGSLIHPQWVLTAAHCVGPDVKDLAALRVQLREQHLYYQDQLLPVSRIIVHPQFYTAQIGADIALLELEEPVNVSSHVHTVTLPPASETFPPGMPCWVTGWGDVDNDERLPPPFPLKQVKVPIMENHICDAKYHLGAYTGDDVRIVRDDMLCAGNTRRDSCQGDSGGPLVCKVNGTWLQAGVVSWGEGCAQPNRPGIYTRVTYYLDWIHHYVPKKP

One test addresses T1, recombinant human β tryptase (Homo sapiens, UniProt P20231).
T1 construct: host or cells: yeast cells
As to the kind of experiment: Tryptase primary screen (chromogenic assay), IC50 and Ki determination. Type of test: biochemical. The note with it: Tryptase Ki, substrate S2366 0.5 mM (2×Km), room temperature; Ki=IC50/(1+[Substrate]/Km). On the procedure:
Tryptase inhibition activity is confirmed using either isolated human lung tryptase or recombinant human β tryptase expressed in yeast cells. Essentially equivalent results are obtained using isolated native enzyme or the expressed enzyme. The assay procedure employs a 96 well microplate (Costar 3590) using L-pyroglutamyl-L-prolyl-L-arginine-para-nitroanilide (S2366: Quadratech) as substrate (essentially as described by McEuen et. al. Biochem Pharm, 1996, 52, pages 331-340). Assays are performed at room temperature using 0.5 mM substrate (2×Km) and the microplate is read on a microplate reader (Beckman Biomek Plate reader) at 405 nm wavelength.
Materials and Methods for Tryptase primary screen (Chromogenic Assay)
S2366 (Stock solutions of 2.5 mM).
Purified recombinant beta Tryptase Stocks of 310 μg/mL.
• Add 60 μL of diluted substrate (final concentration of 500 μM in assay buffer) to each well • Add compound in duplicates, final concentration of 20 μM, volume 20 μL • Add enzyme at a final concentration of 50 ng/mL in a volume of 20 μL • Total volume for each well is 100 μL • Agitate briefly to mix and incubate at room temp in the dark for 30 minutes • Read absorbencies at […]
Each plate has the following controls: • Totals: 60 μL of substrate, 20 μL of buffer (with 0.2% final concentration of DMSO), • 20 μL of enzyme • Non-specific: 60 μL of substrate, 40 μL of buffer (with 0.2% DMSO) • Totals: 60 μL of substrate, 20 μL of buffer (No DMSO), 20 μL of enzyme • Non-specific: 60 μL of substrate, 40 μL of buffer (No DMSO)
The protocol is essentially the same as above except that the compound is added in duplicates at the following final concentrations: 0.01, 0.03, 0.1, 0.3, 1, 3, 10 μM (All dilutions carried out manually). For every assay, whether single point or IC50 determination, a standard compound is used to derive IC50 for comparison. From the IC50 value, the Ki can be calculated using the following formula: Ki=IC50/(1+[Substrate]/Km).
For orientation: Ki means the dissociation constant of the complex between target and ligand, obtained from inhibition or displacement. `Cc1ccc(F)c2c(C(=O)N3CCC(c4cc(CN)ccc4F)CC3)cn(CCOC(F)(F)F)c12` [Example 22]: the Ki was determined as 731 nM.

Take `COCCn1cc(C(=O)N2CCC(c3cc(CN)ccc3F)CC2)c2c(Cl)cc(Cl)cc21` [Example 16, [4-(5-Aminomethyl-2-fluoro-phenyl)-piperidin-1-yl]-[4,6-dichloro-1-(2-methoxy-ethyl)-1H-indol-3-yl]-methanone hydrochloride]: the Ki was 649 nM.

On to `COCCn1cc(C(=O)N2CCC(c3cc(CN)ccc3F)CC2)c2c(Cl)ccc(OC(F)(F)F)c21` [Example 12, [4-(5-Aminomethyl-2-fluoro-phenyl)-piperidin-1-yl]-[4-chloro-1-(2-methoxy-ethyl)-7-trifluoromethoxy-1H-indol-3-yl]-methanone hydrochloride], for which the Ki was determined as 171 nM.

On to `COCCn1cc(C(=O)N2CCC(c3cc(CN)ccc3F)CC2)c2c(C(F)(F)F)ccc(F)c21` [Example 13, [4-(5-Aminomethyl-2-fluoro-phenyl)-piperidin-1-yl]-[7-fluoro-1-(2-methoxy-ethyl)-4-trifluoromethyl-1H-indol-3-yl]-methanone hydrochloride], for which the inhibitory constant (Ki) came to 129 nM.

For the molecule `COCCn1cc(C(=O)N2CCC(c3cc(CN)ccc3F)CC2)c2cc(Cl)cc(C)c21` [Example 1, [4-(5-Aminomethyl-2-fluoro-phenyl)-piperidin-1-yl]-[5-chloro-1-(2-methoxy-ethyl)-7-methyl-1H-indol-3-yl]-methanone hydrochloride], the inhibition constant (Ki) amounted to 116 nM.

With `COCCn1cc(C(=O)N2CCC(c3cc(CN)ccc3F)CC2)c2c(Cl)ccc(Cl)c21` [Example 8, [4-(5-Aminomethyl-2-fluoro-phenyl)-piperidin-1-yl]-[4,7-dichloro-1-(2-methoxy-ethyl)-1H-indol-3-yl]-methanone hydrochloride], the Ki was 134 nM and 74 nM.

As for `COCCn1cc(C(=O)N2CCC(c3cc(CN)ccc3F)CC2)c2c(C)ccc(F)c21` [Example 15, [4-(5-Aminomethyl-2-fluoro-phenyl)-piperidin-1-yl]-[7-fluoro-1-(2-methoxy-ethyl)-4-methyl-1H-indol-3-yl]-methanone hydrochloride], the Ki is 45 nM.

For `COCCn1cc(C(=O)N2CCC(c3cc(CN)ccc3F)CC2)c2c(F)ccc(Cl)c21` [Example 9, [4-(5-Aminomethyl-2-fluoro-phenyl)-piperidin-1-yl]-[7-chloro-4-fluoro-1-(2-methoxy-ethyl)-1H-indol-3-yl]-methanone hydrochloride], the inhibition constant (Ki) is 49 nM and 32 nM.

Regarding `CCCn1cc(C(=O)N2CCC(c3cc(CN)ccc3F)CC2)c2c(OC(F)(F)F)ccc(F)c21` [Example 11, [4-(5-Aminomethyl-2-fluoro-phenyl)-piperidin-1-yl]-(1-propyl-7-fluoro-4-trifluoromethoxy-1H-indol-3-yl)-methanone hydrochloride], the inhibition constant Ki was 208 nM and 186 nM.

Regarding `COCCn1cc(C(=O)N2CCC(c3cc(CN)ccc3F)CC2)c2c(F)ccc(C)c21` [Example 4, [4-(5-Aminomethyl-2-fluoro-phenyl)-piperidin-1-yl]-[4-fluoro-1-(2-methoxy-ethyl)-7-methyl-1H-indol-3-yl]-methanone hydrochloride], the Ki worked out at 26 nM.

For the molecule `COCCn1cc(C(=O)N2CCC(c3cc(CN)ccc3F)CC2)c2c(F)c(F)ccc21` [Example 19, [4-(5-Aminomethyl-2-fluoro-phenyl)-piperidin-1-yl]-[4,5-difluoro-1-(2-methoxy-ethyl)-1H-indol-3-yl]-methanone hydrochloride], the inhibitory constant (Ki) amounted to 142 nM.

In the case of `COCCn1cc(C(=O)N2CCC(c3cc(CN)ccc3F)CC2)c2c(F)ccc(OC(F)(F)F)c21` [Example 5, [4-(5-Aminomethyl-2-fluoro-phenyl)-piperidin-1-yl]-[4-fluoro-1-(2-methoxy-ethyl)-7-trifluoromethoxy-1H-indol-3-yl]-methanone hydrochloride], the inhibitory constant (Ki) is 322 nM.

As for `COCCn1cc(C(=O)N2CCC(c3cc(CN)ccc3F)CC2)c2ccc(F)c(C)c21` [Example 2, [4-(5-Aminomethyl-2-fluoro-phenyl)-piperidin-1-yl]-[6-fluoro-1-(2-methoxy-ethyl)-7-methyl-1H-indol-3-yl]-methanone hydrochloride], the Ki is 45 nM.

For the molecule `NCc1ccc(F)c(C2CCN(C(=O)c3cn(CCOC(F)(F)F)c4c(F)ccc(OC(F)(F)F)c34)CC2)c1` [Example 21, [4-(5-Aminomethyl-2-fluoro-phenyl)-piperidin-1-yl]-[7-fluoro-4-trifluoromethoxy-1-(2-trifluoromethoxy-ethyl)-1H-indol-3-yl]-methanone hydrochloride], the inhibitory constant (Ki) was 487 nM.

Turning to `COCCn1cc(C(=O)N2CCC(c3cc(CN)ccc3F)CC2)c2c(F)cc(F)cc21` [Example 18, [4-(5-Aminomethyl-2-fluoro-phenyl)-piperidin-1-yl]-[4,6-difluoro-1-(2-methoxy-ethyl)-1H-indol-3-yl]-methanone hydrochloride], the inhibitory constant (Ki) was 192 nM.

In the case of `COCCn1cc(C(=O)N2CCC(c3cc(CN)ccc3F)CC2)c2c(OC(F)(F)F)ccc(Cl)c21` [Example 10, [4-(5-Aminomethyl-2-fluoro-phenyl)-piperidin-1-yl]-[7-chloro-1-(2-methoxy-ethyl)-4-trifluoromethoxy-1H-indol-3-yl]-methanone hydrochloride], the Ki was 146 nM and 122 nM.

With `CCCCn1cc(C(=O)N2CCC(c3cc(CN)ccc3F)CC2)c2c(OC(F)(F)F)ccc(F)c21` [Example 7, [4-(5-Aminomethyl-2-fluoro-phenyl)-piperidin-1-yl]-(1-butyl-7-fluoro-4-trifluoromethoxy-1H-indol-3-yl)-methanone hydrochloride], the inhibition constant Ki was found to be 365 nM.

As to `COCCn1cc(C(=O)N2CCC(c3cc(CN)ccc3F)CC2)c2cc(OC)c(OC)cc21` [Example 20, [4-(5-Aminomethyl-2-fluoro-phenyl)-piperidin-1-yl]-[5,6-dimethoxy-1-(2-methoxy-ethyl)-1H-indol-3-yl]-methanone hydrochloride], the Ki was determined as 90 nM.

For the molecule `COCCn1cc(C(=O)N2CCC(c3cc(CN)ccc3F)CC2)c2c(C(F)(F)F)ccc(OC)c21` [Example 14, [4-(5-Aminomethyl-2-fluoro-phenyl)-piperidin-1-yl]-[7-methoxy-1-(2-methoxy-ethyl)-4-trifluoromethyl-1H-indol-3-yl]-methanone hydrochloride], the Ki was 48 nM.

On to `COCCn1cc(C(=O)N2CCC(c3cc(CN)ccc3F)CC2)c2c(Cl)ccc(C)c21` [Example 6, [4-(5-Aminomethyl-2-fluoro-phenyl)-piperidin-1-yl]-[4-chloro-1-(2-methoxy-ethyl)-7-methyl-1H-indol-3-yl]-methanone hydrochloride], for which the inhibitory constant (Ki) worked out at 35 nM.

On to `COCCn1cc(C(=O)N2CCC(c3cc(CN)ccc3F)CC2)c2cc(F)cc(C)c21` [Example 3, [4-(5-Aminomethyl-2-fluoro-phenyl)-piperidin-1-yl]-[5-fluoro-1-(2-methoxy-ethyl)-7-methyl-1H-indol-3-yl]-methanone hydrochloride], for which the inhibitory constant (Ki) was 35 nM.

The same test, now with this note: substrate S2366 0.5 mM (2×Km), room temperature; Ki=IC50/(1+[Substrate]/Km); read-out: Tryptase Ki.
As for `COCCn1cc(C(=O)N2CCC(c3cc(CN)ccc3F)CC2)c2c(F)ccc(F)c21` [Example 17, [4-(5-Aminomethyl-2-fluoro-phenyl)-piperidin-1-yl]-[4,7-difluoro-1-(2-methoxy-ethyl)-1H-indol-3-yl]-methanone], the inhibitory constant (Ki) is 25 nM.
